In BigSolDB 2.1:

O=C(O)CCCc1c[nH]c2ccccc12
solubility (mole fraction)
Settings | 283.15 K | 288.15 K | 293.15 K | 298.15 K | 303.15 K | 308.15 K | 313.15 K | 318.15 K | 323.15 K
in 2-butanone | 0.123 | 0.139 | 0.152 | 0.168 | 0.185 | 0.198 | 0.218 | 0.24 | 0.264
in acetone | 0.22 | 0.24 | 0.257 | 0.274 | 0.291 | 0.315 | 0.339 | 0.365 | 0.399
in acetonitrile | 0.0411 | 0.0531 | 0.0654 | 0.0814 | 0.104 | 0.123 | 0.155 | 0.192 | 0.256
in dimethyl carbonate | 0.0194 | 0.022 | 0.0287 | 0.0354 | 0.0453 | 0.0535 | 0.0644 | 0.0827 | 0.101
in ethanol | 0.048 | 0.0557 | 0.0642 | 0.0753 | 0.0886 | 0.1 | 0.116 | 0.141 | 0.171
in ethyl acetate | 0.049 | 0.0582 | 0.0689 | 0.0808 | 0.0914 | 0.103 | 0.122 | 0.145 | 0.17
in ethyl lactate | 0.101 | 0.106 | 0.117 | 0.128 | 0.14 | 0.151 | 0.165 | 0.19 | 0.22
in isobutanol | 0.0213 | 0.0253 | 0.0315 | 0.0379 | 0.0477 | 0.0581 | 0.0697 | 0.0857 | 0.102
in isobutyl acetate | 0.0355 | 0.0429 | 0.0498 | 0.0572 | 0.0649 | 0.0736 | 0.0848 | 0.0958 | 0.11
in isopentanol | 0.0309 | 0.0348 | 0.0412 | 0.0505 | 0.0601 | 0.0725 | 0.0858 | 0.0985 | 0.116
in isopropanol | 0.0406 | 0.0494 | 0.0599 | 0.0724 | 0.0859 | 0.0984 | 0.112 | 0.128 | 0.143
in isopropyl acetate | 0.0492 | 0.0628 | 0.0711 | 0.0813 | 0.0905 | 0.101 | 0.11 | 0.124 | 0.149
in methanol | 0.0481 | 0.0562 | 0.0656 | 0.0777 | 0.0922 | 0.104 | 0.123 | 0.153 | 0.181
in methyl acetate | 0.0573 | 0.0623 | 0.0701 | 0.0812 | 0.0909 | 0.106 | 0.126 | 0.154 | 0.19
in n-butanol | 0.0362 | 0.0422 | 0.0495 | 0.0582 | 0.0688 | 0.0786 | 0.0961 | 0.112 | 0.134
in n-butyl acetate | 0.0582 | 0.0645 | 0.0726 | 0.0797 | 0.0885 | 0.0977 | 0.112 | 0.129 | 0.141
in n-pentanol | 0.0362 | 0.0408 | 0.0486 | 0.058 | 0.0674 | 0.0764 | 0.0929 | 0.108 | 0.124
in n-propanol | 0.0385 | 0.0446 | 0.0534 | 0.0605 | 0.0727 | 0.0863 | 0.0994 | 0.112 | 0.139
in sec-butanol | 0.0417 | 0.0486 | 0.0582 | 0.0692 | 0.0829 | 0.0964 | 0.111 | 0.13 | 0.163
